Data taken from patent US20160138077A1, “MONITORING AND ASSESSING DEACETYLASE ENZYME ACTIVITY” (THE GENERAL HOSPITAL CORPORATION, priority 2013, published 2016).

Tests used:
Bovine serum albumin = Bovine serum albumin (Bos taurus, UniProt P02769); experiment: HP-1 deacetylation and protein binding assay (gel filtration, fluorescence)
Method: Solutions containing HP-1 (20 μM) in 30 μL HDAC buffer with 5% DMSO were incubated at 37° C. for four hours in the presence or absence of HDAC3 (3.6 μM). After incubation with HDAC3, NaCNBH3 (1.4 mM) or vehicle (H2O) and BSA (6 mg/mL) or vehicle (HDAC buffer), were added to the solutions prior to an additional incubation at 37° C. for two hours (all reactions were run in triplicate). Following the second incubation, the final solutions (50 μL) were added to G-25 columns (GE Healthcare, Buckinghamshire, UK) pre-equilibrated with milliQ water. The columns were then centrifuged at 700×g for 60 seconds before addition of milliQ water (50 μL). […] 75 μL of each fraction was transferred to a well in a 96-well, black, clear-bottom plate (Corning Incorporated, Corning, N.Y.) and the fluorescence was detected using an IVIS Spectrum (Caliper, Hopkinton, Mass.). To obtain the fluorescence signals, the 465 nm excitation filter, 530 nm emission filter, and a 5 second exposure were used. For analysis, the total photon flux over the area of each well was determined.
HP-1 deacetylation and protein binding assay. […] The fractions were transferred to a well in a 96-well, black, clear-bottom plate (Corning Incorporated, Corning, N.Y.) and the fluorescence was detected using an IVIS Spectrum (Caliper, Hopkinton, Mass.). […]

[1] = Stability of the enamide in HDAC buffer at pH 2-12 (HPLC/LCMS); assay type: physicochemical; settings: HDAC assay buffer, room temperature, 20 μM
Method: HDAC buffer was adjusted to pH 2, 4, 6, 7, 8, 10 or 12 with […]. Compound 9 was dissolved in HDAC buffer at each pH to obtain 200 μL of a 20 μM solution. The solutions were kept at room temperature and 10 μL aliquots were analyzed at selected time points (t=0, 5, 10, 15, 30 and 60 minutes). Experiments were carried out in duplicate and the hydrolysis was monitored by HPLC and LCMS. HPLC measurements were made using a gradient elution system composed of water and acetonitrile with 0.01% ammonium formate at a flow rate of 1 mL/min on an Agilent Eclipse XDB-C18 chromatographic column (4.6 mm×150 mm). LCMS was performed with a gradient elution system composed of water and acetonitrile with 0.1% ammonium formate at a flow rate of 0.1 mL/min using an Agilent Eclipse XDB-C8 chromatographic column (5 μm particle size, 2.1 mm×150 mm).

Sequence of Bovine serum albumin (P02769 25-607): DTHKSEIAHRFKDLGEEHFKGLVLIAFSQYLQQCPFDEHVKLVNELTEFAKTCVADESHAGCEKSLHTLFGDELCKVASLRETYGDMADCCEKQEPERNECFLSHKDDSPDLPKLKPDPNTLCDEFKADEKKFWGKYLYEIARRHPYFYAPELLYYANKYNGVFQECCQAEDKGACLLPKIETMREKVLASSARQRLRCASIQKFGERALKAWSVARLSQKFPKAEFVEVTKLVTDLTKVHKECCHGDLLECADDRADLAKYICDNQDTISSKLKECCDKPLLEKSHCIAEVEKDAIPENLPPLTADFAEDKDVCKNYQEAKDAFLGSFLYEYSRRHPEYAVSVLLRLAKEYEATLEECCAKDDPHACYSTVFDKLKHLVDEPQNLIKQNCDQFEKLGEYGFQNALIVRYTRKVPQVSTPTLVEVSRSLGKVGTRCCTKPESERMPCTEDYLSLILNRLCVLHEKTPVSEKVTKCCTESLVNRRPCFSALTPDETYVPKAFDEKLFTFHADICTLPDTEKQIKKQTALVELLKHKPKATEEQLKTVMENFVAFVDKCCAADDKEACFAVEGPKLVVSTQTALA

| SMILES | increase in protein-DHP-1 binding compared to controls (Bovine serum albumin; HP-1 (20 μM) incubated with HDAC3, then BSA with NaCNBH3 (Lanes F and H)) | increase in detected protein-DHP-1 binding relative to controls (Bovine serum albumin; HP-1 (20 μM) incubated with HDAC3, then BSA, no NaCNBH3 (lanes E and G)) | conversion of the enamide to the aldehyde ([1]; pH 2, 60 min) | conversion of the enamide to the aldehyde ([1]; pH 4-12, 60 min) |
| --- | --- | --- | --- | --- |
| O=CCCCCCNC(=O)CCCCCNc1ccc([N+](=O)[O-])c2nonc12 [DHP-1] | 5 fold | 2 fold |  |  |
| CC(=O)NC=CCCCCNC(=O)c1ccccc1 [Compound 9] |  |  | full conversion | no detectable conversion |
